Results reported in US20200131196A1 (Mount Tam Therapeutics, Inc., priority 2017, published 2020).
Values joined by “and” are separate entries in the source; they are usually repeats but may differ in a detail not shown here. Identical values can stand only once.

Assays:
[1] = biological target: T1, TORC1 (Homo sapiens, UniProt P42345+P62942); assay: TORC1 inhibition in PC3 cells (Western blot, phospho-rpS6); type: cell-based
T1 construct: endogenous in cells; host or cells: PC3 cells
Method: Equal amounts of protein were resolved by SDS-PAGE and transferred to nitrocellulose membrane using the Invitrogen Nu-Page system. […] The following day, blots were washed 3 times in TBST, incubated for 2 hr with secondary antibodies (donkey anti rabbit hrp conjugated), and finally washed an additional 3 times in TBST. ECL Prime (Amersham) was used to detect the proteins of interest and ImageJ was used to quantify blots.

[2] = test system: CaOV3; assay: OncoPanel cell proliferation assay, CaOV3; type: cell-based, human
Method: Cells were grown in RPMI 1640, 10% FBS, 2 mM L-alanyl-L-glutamine, 1 mM Na pyruvate, or a special medium. Cells were seeded into 384-well plates and incubated in a humidified atmosphere of 5% CO2 at 37° C. Compounds were added the day following cell seeding. At the same time, a time zero untreated cell plate was generated. After a 3-day incubation period, cells were fixed and stained to allow fluorescence imaging of nuclei. Compounds (1 mM stock solutions) were serially diluted in half-log steps from the highest test concentration ([…]), and assayed over 10 concentrations with a maximum assay concentration of 0.1% DMSO. Automated fluorescence microscopy was carried out using a Molecular Devices ImageXpress Micro XL high-content imager, and images were collected with a 4× objective. 16-bit TIFF images were acquired and analyzed with MetaXpress 5.1.0.41 software.
Cell proliferation was measured by the fluorescence intensity of an incorporated nuclear dye. The output is referred to as the relative cell count, where the measured nuclear intensity is transformed to percent of control (POC) using the following formula: […]
Cellular response parameters were calculated using nonlinear regression to a sigmoidal single-site dose response model:
EC50 is the test compound concentration at the curve inflection point or half the effective response (parameter C of the fitted curve solution). GI50 is the concentration needed to reduce the observed growth by half (midway between the curve maximum and the time zero value). “Cell Count Activity Area” is an estimate of the integrated area above the curve (Barretina, et al. The Cancer Cell Line Encyclopedia enables predictive modelling of anticancer drug sensitivity. Nature 483: 603-607). […] In rare instances, values <0 or >10 may be observed. […] Curve-fitting, calculations, and report generation was performed using a custom data reduction engine and MathIQ based software (AIM).

[3] = Whole blood concentrations in mice after IP dosing (LC-MS/MS); type: in vivo, mouse; details: for Formula II Concentrations in Mouse Whole Blood, individual animals: animals 7, 8, 9
Method: Shown below are whole blood concentrations following administration of the compound of Formula II to mice. The compound of Formula II was administered to mice at 2 mg/kg or 10 mg/kg and the concentration of the compound in whole blood determined. These determinations were made using protein precipitation, liquid chromatography (LC), and mass spectrometry (MS/MS). Ten μl aliquots of whole blood and matrix calibration standards were distributed in a 96-well plate; 10 μl aliquots of blank matrix for matrix blanks and control blanks were included as controls. Ten μl of water was added to each sample followed by vortexing. One hundred sixty […] of internal standard was added to each sample except the matrix blanks; 160 μl 70:30 water:acetonitrile (ACN) was added to matrix blanks. This was followed by a […]. One hundred fifty μl of the resultant supernatant was then transferred to a new 96-well plate and the samples blown to dryness at 35° C. The resultant product was then reconstituted with 90 μl ACN.

[4] = 2 mg/kg IP QD × 3 days, Day 1, 1.00 hrs
[5] = 2 mg/kg IP QD × 3 days, Day 1, 2.00 hrs
[6] = 2 mg/kg IP QD × 3 days, Day 1, 6.00 hrs
[7] = 2 mg/kg IP QD × 3 days, Day 3, 1.00 hrs
[8] = 2 mg/kg IP QD × 3 days, Day 3, 2.00 hrs
[9] = 2 mg/kg IP QD × 3 days, Day 3, 6.00 hrs
[10] = 2 mg/kg IP QD × 3 days, Day 3, 24.0 hrs

SMILES: CO[C@H]1C[C@@H]2CC[C@@H](C)[C@@](O)(O2)C(=O)C(=O)N2CCCC[C@H]2C(=O)O[C@H]([C@H](C)C[C@H]2C[C@H]3C[C@@H]2C[C@@H]3O)CC(=O)[C@H](C)/C=C(\C)[C@@H](O)[C@@H](OC)C(=O)[C@H](C)C[C@H](C)/C=C/C=C/C=C/1C [Formula II, C37-[(1R,2S,4R,5S)-5-hyhroxybicyclo[2.2.1]heptane] rapamycin]
- TORC1/TORC2 Selectivity [1]: 50x
- selectivity of mTORC1 vs mTORC2 inhibition compared with the polyketide disclosed in U.S. Pat. No. 9,382,266 (in words) [1]: less selectively
- IC50 ([1]; Western blot): 0.099 nM
- Cell Count Activity Area [2]: 2.53
- Relative cell count (%) Mean ([2]; 1.00E+00 microM): 57.7%
- Relative cell count (%) Mean ([2]; 1.00E-01 microM): 63.1%
- Relative cell count (%) Mean ([2]; 1.00E-02 microM): 73.9%
- Relative cell count (%) Mean ([2]; 1.00E-03 microM): 76.4%
- Relative cell count (%) Mean ([2]; 1.01E-04 microM): 98.2%
- Relative cell count (%) Mean ([2]; 3.16E-01 microM): 60.5%
- Relative cell count (%) Mean ([2]; 3.17E-02 microM): 64.6%
- Relative cell count (%) Mean ([2]; 3.17E-03 microM): 78.3%
- Relative cell count (%) Mean ([2]; 3.18E-04 microM): 76.6%
- Relative cell count (%) Mean ([2]; 3.18E-05 microM): 97.5%
- EC50 ([2]; Homo sapiens, Caov-3, read-out: Cell Count EC50): 1.59 nM
- GI50 ([2]; Homo sapiens, Caov-3, read-out: Cell Count GI50): 47.7 nM
- IC50 ([2]; Homo sapiens, Caov-3, read-out: Cell Count IC50): > 1000 nM
- Formula II Concentrations in Mouse Whole Blood, Mean [3, 4]: 383 ng/mL
- Formula II Concentrations in Mouse Whole Blood, individual animals [3, 4]: 452 ng/mL and 380 ng/mL and 317 ng/mL
- Formula II Concentrations in Mouse Whole Blood, Mean [3, 5]: 403 ng/mL
- Formula II Concentrations in Mouse Whole Blood, individual animals [3, 5]: 415 ng/mL (2×) and 378 ng/mL
- Formula II Concentrations in Mouse Whole Blood, Mean [3, 6]: 464 ng/mL
- Formula II Concentrations in Mouse Whole Blood, individual animals [3, 6]: 382 ng/mL and 520 ng/mL and 490 ng/mL
- Formula II Concentrations in Mouse Whole Blood, individual animals ([3]; 2 mg/kg IP QD × 3 days, Day 1, 24.0 hrs): 18.4 ng/mL and 14.7 ng/mL
- Formula II Concentrations in Mouse Whole Blood, individual animals ([3]; 2 mg/kg IP QD × 3 days, Day 2, 1.00 hrs): 481 ng/mL and 208 ng/mL and 524 ng/mL
- Formula II Concentrations in Mouse Whole Blood, individual animals ([3]; 2 mg/kg IP QD × 3 days, Day 2, 2.00 hrs): 501 ng/mL and 233 ng/mL and 570 ng/mL
- Formula II Concentrations in Mouse Whole Blood, individual animals ([3]; 2 mg/kg IP QD × 3 days, Day 2, 6.00 hrs): 632 ng/mL and 552 ng/mL
- Formula II Concentrations in Mouse Whole Blood, individual animals ([3]; 2 mg/kg IP QD × 3 days, Day 2, 24.0 hrs): 15.3 ng/mL and 80.6 ng/mL and 35.2 ng/mL
- Formula II Concentrations in Mouse Whole Blood, Mean [3, 7]: 651 ng/mL
- Formula II Concentrations in Mouse Whole Blood, individual animals [3, 7]: 726 ng/mL and 600 ng/mL
- Formula II Concentrations in Mouse Whole Blood, Mean [3, 8]: 501 ng/mL
- Formula II Concentrations in Mouse Whole Blood, individual animals [3, 8]: 478 ng/mL and 489 ng/mL and 535 ng/mL
- Formula II Concentrations in Mouse Whole Blood, Mean [3, 9]: 588 ng/mL
- Formula II Concentrations in Mouse Whole Blood, individual animals [3, 9]: 416 ng/mL and 745 ng/mL and 604 ng/mL
- Formula II Concentrations in Mouse Whole Blood, Mean [3, 10]: 41.9 ng/mL
- Formula II Concentrations in Mouse Whole Blood, individual animals [3, 10]: 17.6 ng/mL and 59.6 ng/mL and 48.6 ng/mL
- concentrations in whole blood over time (in words) ([3]; 2 mg/kg or 10 mg/kg IP QD for three days): sufficient concentrations in whole blood
- Formula II Concentrations in Mouse Whole Blood, Mean ([3]; 10 mg/kg IP QD × 3 days, Day 1, 1.00 hrs): 657 ng/mL
